# Columns and labels:
# Melanocortin receptor 3 [1] = molecular target: T1, Melanocortin receptor 3 (Homo sapiens, UniProt P41968); assay: Inhibition of [125I]-NDP-alpha-MSH binding to melanocortin-3 receptor expressed in HEK293 cells; assay type: cell-based
# Melanocortin receptor 5 = Melanocortin receptor 5 (Homo sapiens, UniProt P33032); assay: Inhibition of [125I]NDP-alpha-MSH binding to melanocortin-5 receptor expressed in HEK293 cells; assay type: cell-based
# Melanocortin receptor 4 [2] = molecular target: T2, Melanocortin receptor 4 (Homo sapiens, UniProt P32245); assay: Inhibition of [125I]NDP-alpha-MSH binding to melanocortin-4 receptor expressed in HEK293 cells; assay type: cell-based
# T2 sequence (P32245 whole entry): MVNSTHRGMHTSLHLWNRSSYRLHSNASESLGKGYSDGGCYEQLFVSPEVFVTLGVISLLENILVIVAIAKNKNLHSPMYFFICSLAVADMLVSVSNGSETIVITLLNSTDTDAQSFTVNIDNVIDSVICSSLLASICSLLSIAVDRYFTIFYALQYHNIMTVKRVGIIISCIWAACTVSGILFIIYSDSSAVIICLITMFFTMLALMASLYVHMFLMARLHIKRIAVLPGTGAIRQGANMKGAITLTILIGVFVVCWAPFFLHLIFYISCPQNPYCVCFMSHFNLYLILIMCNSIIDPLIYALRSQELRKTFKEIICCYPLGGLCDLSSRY
# Melanocortin receptor 4 [3] = molecular target: T2, Melanocortin receptor 4; assay: Agonist activity at human Melanocortin-4 receptor as peptide required for 50% maximal cAMP release (n > or =2); assay type: functional
# [4] = molecular target: Melanocyte-stimulating hormone receptor (Homo sapiens, UniProt Q01726); assay: Inhibition of [125I]NDP-alpha-MSH binding to melanocortin-1 receptor expressed in HEK293 cells; assay type: cell-based
# Melanocyte-stimulating hormone receptor, sequence (Q01726 whole entry): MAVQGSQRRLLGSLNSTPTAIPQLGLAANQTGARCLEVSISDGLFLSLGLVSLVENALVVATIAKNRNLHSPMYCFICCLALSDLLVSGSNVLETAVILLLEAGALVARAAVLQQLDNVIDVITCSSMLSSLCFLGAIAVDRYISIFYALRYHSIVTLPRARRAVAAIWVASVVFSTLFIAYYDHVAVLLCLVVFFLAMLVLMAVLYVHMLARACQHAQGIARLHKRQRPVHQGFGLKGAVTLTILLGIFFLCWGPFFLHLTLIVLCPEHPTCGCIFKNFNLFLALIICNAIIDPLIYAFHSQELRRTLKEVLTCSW
# Melanocortin receptor 4 [5] = molecular target: Melanocortin receptor 4 (Rattus norvegicus, UniProt P70596); assay: Binding affinity for rat melanocortin-4 receptor
# Melanocortin receptor 4 (Rattus norvegicus, UniProt P70596), sequence (P70596 whole entry): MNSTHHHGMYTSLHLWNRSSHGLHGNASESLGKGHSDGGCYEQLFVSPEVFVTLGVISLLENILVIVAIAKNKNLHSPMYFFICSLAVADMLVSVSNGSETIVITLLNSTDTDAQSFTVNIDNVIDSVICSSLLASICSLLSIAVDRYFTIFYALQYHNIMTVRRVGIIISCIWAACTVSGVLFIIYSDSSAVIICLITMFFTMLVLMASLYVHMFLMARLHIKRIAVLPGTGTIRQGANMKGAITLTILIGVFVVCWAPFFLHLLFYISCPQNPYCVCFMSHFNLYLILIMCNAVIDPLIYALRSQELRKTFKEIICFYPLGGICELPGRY
# Melanocortin receptor 3 [6] = molecular target: T1, Melanocortin receptor 3; assay: Agonist activity at human Melanocortin-3 receptor as peptide required for 50% maximal cAMP release; assay type: functional
# Melanocortin receptor 5, sequence (P33032 whole entry): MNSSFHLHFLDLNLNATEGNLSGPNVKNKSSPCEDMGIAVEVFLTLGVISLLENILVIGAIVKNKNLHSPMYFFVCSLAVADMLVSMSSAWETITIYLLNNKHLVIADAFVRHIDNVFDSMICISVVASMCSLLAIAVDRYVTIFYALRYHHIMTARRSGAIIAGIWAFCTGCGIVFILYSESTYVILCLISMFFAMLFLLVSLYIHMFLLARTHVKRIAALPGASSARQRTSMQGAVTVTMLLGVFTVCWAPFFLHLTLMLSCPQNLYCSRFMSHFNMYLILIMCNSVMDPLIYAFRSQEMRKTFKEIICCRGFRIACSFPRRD
# T1 sequence (P41968 whole entry): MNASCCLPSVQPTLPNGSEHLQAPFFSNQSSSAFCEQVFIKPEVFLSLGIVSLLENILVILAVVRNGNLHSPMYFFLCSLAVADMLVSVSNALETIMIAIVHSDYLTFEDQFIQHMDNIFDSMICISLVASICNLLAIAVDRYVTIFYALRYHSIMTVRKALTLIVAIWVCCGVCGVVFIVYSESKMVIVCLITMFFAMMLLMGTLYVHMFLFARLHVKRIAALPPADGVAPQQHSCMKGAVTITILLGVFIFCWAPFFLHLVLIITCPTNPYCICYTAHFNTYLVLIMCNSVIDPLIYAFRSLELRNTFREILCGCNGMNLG
Compound,Ki (Melanocortin receptor 3 [1]),Ki (Melanocortin receptor 5),Ki (Melanocortin receptor 4 [2]),EC50 (Melanocortin receptor 4 [3]),Ki [4],Ki (Melanocortin receptor 4 [5]),EC50 (Melanocortin receptor 3 [6])
CC(=O)N[C@@H](Cc1ccc(O)cc1)C(=O)N[C@@H](CCCNC(=N)N)C(=O)N[C@H]1CSSC[C@@H](C(N)=O)NC(=O)[C@H](Cc2c[nH]c3ccccc23)NC(=O)[C@H](CCCNC(=N)N)NC(=O)[C@@H](Cc2ccc(F)cc2)NC(=O)[C@H](Cc2c[nH]cn2)NC(=O)[C@H](CCC(=O)O)NC1=O,15.9 nM,239 nM,0.28 nM,0.12 nM,9.91 nM,–,–
H-GPYRMEHFRWGSPPKD-NH2,9.23 nM,24.8 nM,5.28 nM,0.67 nM,0.51 nM,–,–
CSC[C@H](NC(=O)[C@H](Cc1c[nH]c2ccccc12)NC(=O)[C@H](CCCNC(=N)N)NC(=O)[C@@H](Cc1ccccc1)NC(=O)[C@H](Cc1cnc[nH]1)NC(=O)[C@H](CCC(=O)O)NC(=O)[C@H](CSC)NC(=O)[C@H](CCCNC(=N)N)NC(=O)[C@H](Cc1ccc(O)cc1)NC(C)=O)C(N)=O,166 nM,62.1 nM,13.2 nM,0.92 nM,2.73 nM,–,–
CSCC[C@H](NC(=O)[C@H](CCCNC(=N)N)NC(=O)[C@H](Cc1ccc(O)cc1)NC(C)=O)C(=O)N[C@@H](CCC(=O)O)C(=O)N[C@@H](Cc1cnc[nH]1)C(=O)N[C@H](Cc1ccccc1)C(=O)N[C@@H](CCCNC(=N)N)C(=O)N[C@@H](Cc1c[nH]c2ccccc12)C(=O)NCC(=O)N[C@@H](CO)C(=O)N1CCC[C@H]1C(=O)N1CCC[C@H]1C(=O)N[C@@H](CCCCN)C(=O)N[C@@H](CC(=O)O)C(N)=O,0.11 nM,0.26 nM,0.27 nM,0.56 nM,0.09 nM,–,–
CC(=O)N[C@@H](Cc1ccc(O)cc1)C(=O)N[C@@H](CCCNC(=N)N)C(=O)N[C@H]1CSSC[C@@H](C(N)=O)NC(=O)[C@H](Cc2c[nH]c3ccccc23)NC(=O)[C@H](CCCNC(=N)N)NC(=O)[C@@H](Cc2ccccc2)NC(=O)[C@H](Cc2cncn2C)NC(=O)[C@H](CCC(=O)O)NC1=O,> 500 nM,> 500 nM,6.6 nM,0.54 nM,> 500 nM,–,–
CC(=O)N[C@@H](CCCNC(=N)N)C(=O)N[C@H]1CSSC[C@@H](C(N)=O)NC(=O)[C@H](Cc2c[nH]c3ccccc23)NC(=O)[C@H](CCCNC(=N)N)NC(=O)[C@@H](Cc2ccccc2)NC(=O)[C@H](Cc2c[nH]cn2)NC(=O)[C@H](CCC(=O)O)NC1=O,33.8 nM,> 500 nM,–,–,10.3 nM,–,0.68 nM
CC(=O)N[C@@H](Cc1ccc(O)cc1)C(=O)N[C@@H](CCCN=C(N)N)C(=O)N[C@H]1CSSC[C@@H](C(=O)N[C@@H](CO)C(=O)N2CCC[C@H]2C(=O)N2CCC[C@H]2C(=O)N[C@@H](CCCCN)C(=O)N[C@@H](CC(=O)O)C(N)=O)NC(=O)[C@H](Cc2c[nH]c3ccccc23)NC(=O)[C@H](CCCN=C(N)N)NC(=O)[C@@H](Cc2ccccc2)NC(=O)[C@H](Cc2c[nH]cn2)NC(=O)[C@H](CCC(=O)O)NC1=O,7.91 nM,> 500 nM,0.52 nM,0.24 nM,0.57 nM,–,–

# Next, values leading:
Ki (Melanocortin receptor 3 [1]),Ki (Melanocortin receptor 5),Ki (Melanocortin receptor 4 [2]),EC50 (Melanocortin receptor 4 [3]),Ki [4],Ki (Melanocortin receptor 4 [5]),EC50 (Melanocortin receptor 3 [6]),Compound
6.84 nM,37.8 nM,0.3 nM,0.65 nM,121 nM,–,–,CC(=O)N[C@@H](Cc1ccc(O)cc1)C(=O)N[C@@H](CCCN=C(N)N)C(=O)N[C@H]1CSSC[C@@H](C(N)=O)NC(=O)[C@H](Cc2c[nH]c3ccccc23)NC(=O)[C@H](CCCN=C(N)N)NC(=O)[C@@H](Cc2ccc3ccccc3c2)NC(=O)[C@H](Cc2c[nH]cn2)NC(=O)[C@H](CCC(=O)O)NC1=O
3.12 nM,42.2 nM,0.14 nM,0.06 nM,8.22 nM,–,–,CC(=O)N[C@@H](Cc1ccc(O)cc1)C(=O)N[C@@H](CCCNC(=N)N)C(=O)N[C@H]1CSSC[C@@H](C(N)=O)NC(=O)[C@H](Cc2c[nH]c3ccccc23)NC(=O)[C@H](CCCNC(=N)N)NC(=O)[C@@H](Cc2ccc(Cl)cc2)NC(=O)[C@H](Cc2c[nH]cn2)NC(=O)[C@H](CCC(=O)O)NC1=O
56.8 nM,> 500 nM,–,–,16.8 nM,0.39 nM,1.61 nM,CC(=O)N[C@H](CCCNC(=N)N)C(=O)N[C@H]1CSSC[C@@H](C(N)=O)NC(=O)[C@H](Cc2c[nH]c3ccccc23)NC(=O)[C@H](CCCNC(=N)N)NC(=O)[C@@H](Cc2ccccc2)NC(=O)[C@H](Cc2c[nH]cn2)NC(=O)[C@H](CCC(=O)O)NC1=O
10.6 nM,76.9 nM,–,–,0.89 nM,–,–,CSCC[C@H](NC(=O)[C@H](CCCN=C(N)N)NC(=O)[C@H](Cc1ccc(O)cc1)NC(=O)[C@@H]1CCCN1C(=O)CNC(=O)[C@H](CCC(=O)O)NC(=O)[C@H](CC(=O)O)NC(=O)[C@H](CCCCN)NC(=O)[C@H](CCCCN)NC(=O)[C@H](CCC(=O)O)NC(=O)[C@H](C)N)C(=O)N[C@@H](CCC(=O)O)C(=O)N[C@@H](Cc1c[nH]cn1)C(=O)N[C@@H](Cc1ccccc1)C(=O)N[C@@H](CCCN=C(N)N)C(=O)N[C@@H](Cc1c[nH]c2ccccc12)C(=O)NCC(=O)N[C@@H](CO)C(=O)N1CCC[C@H]1C(=O)N1CCC[C@H]1C(=O)N[C@@H](CCCCN)C(=O)N[C@@H](CC(=O)O)C(=O)O
–,> 500 nM,1.22 nM,0.1 nM,15.8 nM,–,–,CC(=O)N[C@@H](Cc1ccc(O)cc1)C(=O)N[C@@H](CCCCN)C(=O)N[C@H]1CSSC[C@@H](C(N)=O)NC(=O)[C@H](Cc2c[nH]c3ccccc23)NC(=O)[C@H](CCCNC(=N)N)NC(=O)[C@@H](Cc2ccccc2)NC(=O)[C@H](Cc2c[nH]cn2)NC(=O)[C@H](CCC(=O)O)NC1=O
–,> 500 nM,0.77 nM,0.27 nM,17.1 nM,0.52 nM,–,CC(=O)N[C@@H](Cc1ccc(O)cc1)C(=O)N[C@@H](CCCNC(=N)N)C(=O)N[C@H]1CSSC[C@@H](C(N)=O)NC(=O)[C@H](Cc2c[nH]c3ccccc23)NC(=O)[C@H](CCCNC(=N)N)NC(=O)[C@@H](Cc2ccccc2)NC(=O)[C@H](Cc2c[nH]cn2)NC(=O)[C@H](CCC(=O)O)NC1=O
–,> 500 nM,–,–,67.1 nM,–,–,CC(=O)N[C@H]1CSSC[C@@H](C(N)=O)NC(=O)[C@H](Cc2c[nH]c3ccccc23)NC(=O)[C@H](CCCNC(=N)N)NC(=O)[C@@H](Cc2ccccc2)NC(=O)[C@H](Cc2c[nH]cn2)NC(=O)[C@H](CCC(=O)O)NC1=O
313 nM,> 500 nM,2.54 nM,0.79 nM,49.4 nM,–,–,CC(=O)N[C@@H](Cc1ccc(O)cc1)C(=O)N[C@@H](CCCNC(N)=O)C(=O)N[C@H]1CSSC[C@@H](C(N)=O)NC(=O)[C@H](Cc2c[nH]c3ccccc23)NC(=O)[C@H](CCCNC(=N)N)NC(=O)[C@@H](Cc2ccccc2)NC(=O)[C@H](Cc2c[nH]cn2)NC(=O)[C@H](CCC(=O)O)NC1=O
> 500 nM,> 500 nM,30.5 nM,5.24 nM,147 nM,–,–,CC(=O)N[C@@H](Cc1ccc(O)cc1)C(=O)N[C@@H](CCCN=C(N)N)C(=O)N[C@H]1CSSC[C@@H](C(N)=O)NC(=O)[C@H](Cc2c[nH]c3ccccc23)NC(=O)[C@H](CCCN=C(N)N)NC(=O)[C@H](Cc2ccccc2)NC(=O)[C@H](Cc2c[nH]cn2)NC(=O)[C@H](CCC(=O)O)NC1=O
1.44 nM,0.84 nM,0.55 nM,0.16 nM,0.21 nM,–,–,CSCC[C@H](NC(=O)[C@H](CCCNC(=N)N)NC(=O)[C@H](Cc1ccc(O)cc1)NC(C)=O)C(=O)N[C@@H](CCC(=O)O)C(=O)N[C@@H](Cc1cnc[nH]1)C(=O)N[C@H](Cc1ccccc1)C(=O)N[C@@H](CCCNC(=N)N)C(=O)N[C@@H](Cc1c[nH]c2ccccc12)C(=O)NCC(N)=O
